# In ChEMBL document CHEMBL1201862, “PubChem BioAssay data set” (2004):
#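 Where inhibition never reached the appropriate level, the endpoint shown equals the highest concentration tested. Otherwise, values were interpolated linearly from a five-concentration, 48-hour dose response in 96-well plates. GI50 marks 50% less growth.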 Active and inactive are the calls of the source. No stated cut-off is given here; in the data, active = GI50 up to about 1.1 µM and inactive = higher.
# Tests used:
# Assay in all cases: NCI anticancer screen, dose series, 48 h
# KM12 = system: KM12
# RXF 393 = system: RXF 393
# A549 = system: A549
# EKVX = system: EKVX
# NCI-H226 = system: NCI-H226
# OVCAR-8 = system: OVCAR-8
# HT-29 = system: HT-29
# Malme-3M = system: Malme-3M
# SK-MEL-28 = system: SK-MEL-28
# 786-0 = system: 786-0
# MDA-N = system: MDA-N
# SF-268 = system: SF-268
# NCI-H522 = system: NCI-H522
# UACC-257 = system: UACC-257
# OVCAR-4 = system: OVCAR-4
# HCT-15 = system: HCT-15
# OVCAR-5 = system: OVCAR-5
# HOP-92 = system: HOP-92
# BT-549 = system: BT-549
# MOLT-4 = system: MOLT-4
Structure (SMILES),GI50 (KM12),GI50 (RXF 393),GI50 (A549),GI50 (EKVX),GI50 (NCI-H226),GI50 (OVCAR-8),GI50 (HT-29),GI50 (Malme-3M),GI50 (SK-MEL-28),GI50 (786-0),GI50 (MDA-N),GI50 (SF-268),GI50 (NCI-H522),GI50 (UACC-257),GI50 (OVCAR-4),GI50 (HCT-15) [µM],GI50 (OVCAR-5),GI50 (HOP-92),GI50 (BT-549),GI50 (MOLT-4)
COC(=O)C1=C(O)C(C(=O)OC)[C@]2(O)[C@H](C(=O)OC)[C@H]1C[C@@H](c1ccccc1OC)[C@H]2C(=O)OC (stereo not given in full),6.14 µM (inactive),5.06 µM (inactive),3.85 µM (inactive),8.07 µM (inactive),5.4 µM (inactive),2.86 µM (inactive),4.82 µM (inactive),2.83 µM (inactive),7.87 µM (inactive),7.76 µM (inactive),1.98 µM (inactive),4.53 µM (inactive),1.84 µM (inactive),9.64 µM (inactive),4.95 µM (inactive),3.31,6.08 µM (inactive),2.34 µM (inactive),3.15 µM (inactive),3.59 µM (inactive)
CC(N1CCOCC1)C(O)(c1ccccc1)c1ccccn1 (stereo not given),> 100 µM (inactive),> 100 µM (inactive),> 100 µM (inactive),> 100 µM (inactive),> 100 µM (inactive),> 100 µM (inactive),> 100 µM (inactive),> 100 µM (inactive),> 100 µM (inactive),> 100 µM (inactive),> 100 µM (inactive),> 100 µM (inactive),> 100 µM (inactive),> 100 µM (inactive),> 100 µM (inactive),> 100,> 100 µM (inactive),> 100 µM (inactive),> 100 µM (inactive),–
Oc1nc2ccccc2c(O)c1Cc1ccccc1,> 100 µM (inactive),> 100 µM (inactive),> 100 µM (inactive),> 100 µM (inactive),> 100 µM (inactive),> 100 µM (inactive),> 100 µM (inactive),> 100 µM (inactive),> 100 µM (inactive),> 100 µM (inactive),> 100 µM (inactive),> 100 µM (inactive),> 100 µM (inactive),> 100 µM (inactive),> 100 µM (inactive),> 100,> 100 µM (inactive),> 100 µM (inactive),> 100 µM (inactive),> 100 µM (inactive)
Fc1ccc(F)c(/C=N/C23CC4CC(CC(C4)C2)C3)c1,> 10 µM (inactive),> 10 µM (inactive),> 10 µM (inactive),> 10 µM (inactive),> 10 µM (inactive),> 10 µM (inactive),> 10 µM (inactive),> 10 µM (inactive),> 10 µM (inactive),> 10 µM (inactive),> 10 µM (inactive),> 10 µM (inactive),> 10 µM (inactive),> 10 µM (inactive),> 10 µM (inactive),> 10,> 10 µM (inactive),> 10 µM (inactive),> 10 µM (inactive),> 10 µM (inactive)
CC1=C(Cl)C[C@@H](/C(C)=C\Cl)O[C@@]1(O)C(Br)Br,54.1 µM (inactive),19.2 µM (inactive),22 µM (inactive),26.5 µM (inactive),–,32.1 µM (inactive),32.1 µM (inactive),24.5 µM (inactive),59.8 µM (inactive),33.7 µM (inactive),19.2 µM (inactive),32.7 µM (inactive),18.9 µM (inactive),35.3 µM (inactive),43 µM (inactive),16.8,19.2 µM (inactive),25.2 µM (inactive),28.4 µM (inactive),15.6 µM (inactive)
CSC(SC)=C(C#N)C(=O)Nc1ccc(C)cc1,> 100 µM (inactive),> 100 µM (inactive),> 100 µM (inactive),> 100 µM (inactive),> 100 µM (inactive),–,> 100 µM (inactive),> 100 µM (inactive),> 100 µM (inactive),> 100 µM (inactive),> 100 µM (inactive),> 100 µM (inactive),28.9 µM (inactive),> 100 µM (inactive),> 100 µM (inactive),> 100,> 100 µM (inactive),15.5 µM (inactive),> 100 µM (inactive),95.5 µM (inactive)
CC(=O)Nc1ccc(C(=O)NN2C(=O)CSC2c2ccccc2)cc1 (stereo not given),> 100 µM (inactive),> 100 µM (inactive),> 100 µM (inactive),> 100 µM (inactive),> 100 µM (inactive),> 100 µM (inactive),> 100 µM (inactive),–,> 100 µM (inactive),> 100 µM (inactive),> 100 µM (inactive),> 100 µM (inactive),–,> 100 µM (inactive),> 100 µM (inactive),> 100,> 100 µM (inactive),> 100 µM (inactive),34.5 µM (inactive),> 100 µM (inactive)
